Results as given in patent US4001230A, “3-(5-Nitroimidazol-2-yl)pyrazolo[3,4-d]pyrimidine compounds” (Eli Lilly and Company, priority 1975, dated 1977).
Converted amounts (≈) assume the structure as drawn. Read-outs that look alike come from different tables or passages of the source.

Legend:
[1] = test system: P. multocida; assay: In vivo activity in drinking water for treatment of Pasteurella multocida infection in mice (LD50, protective index); set-up: species or system white female mice; conditions: observed 7 days
Experimental: A comparison of the in vivo activity of a novel compound of this invention and nitrofurazolidone (Furacin) when administered in drinking water for the treatment of Pasteurella multocida infection in mice was conducted. The novel compound of this invention used in this study was 4,5-di-hydro-4-imino-1-methyl-3-(1-methyl-5-nitroimidazol-2-yl)-5-(4-pyridylmethyl)-1H-pyrazolo[3,4-d]pyrimidine diphosphate, identified by its operating example No. 8k. The test was conducted in the following manner.
Twenty white female mice, each weighing about 15-20 g., were divided into four groups of five mice each, and the groups were each placed on water medication containing:
a. Compound 8k, 0.5 g./gal.
b. Compound 8k, 2.0 g./gal.
c. Nitrofurazolidone, 0.5 g./gal.
d. Nitrofurazolidone, 2.0 g./gal.
The groups receiving each treatment were challenged with 0.1 ml. each of a 10^-^4, 10^-^5, 10^-^6, or 10^-^7 dilution of a 16 to 20-hour broth culture of P. multocida. Untreated groups of mice were challenged with log10 dilutions of the same broth culture using 0.1 ml. of 10^-^4 through 10^-^9 dilutions. […] By subtracting the LD50 of each of the treated groups from that of the control group of mice, there was obtained a figure called the protective index.
In the table, column 1 sets forth the treatment; column 2, the LD50; and column 3 the log10 protection obtained.

[2] = test system: Pasteurella multocida; assay: Efficacy against Pasteurella multocida infections in mice when administered by injection; assay type: in vivo, Female Swiss mice; conditions: for responders at 5 mg/kg / responders at 1.25 mg/kg / responders at 2.5 mg/kg: Pasteurella multocida, ip, read-out: Survival ratio (mice surviving / mice tested) (converted); for responders at 1.25 mg/kg: 1.25 mg./kg. intraperitoneal; for responders at 2.5 mg/kg: 2.5 mg./kg. intraperitoneal
Experimental: The efficacy of the novel compounds against Pasteurella multocida infections in mice when administered by injection was studied.
Female Swiss mice weighing from 15 to about 20 g. were used. The test compound, 5.0 mg., was weighed out and dissolved in 0.5 ml. of dimethyl sulfoxide, and this solution was added to 9.5 ml. of sodium carboxymethylcellulose suspension. Groups of five mice each were injected intraperitoneally with 0.1 ml. each of the above-prepared test composition. This preparation gave a test rate of 2.5 mg. per kilo of body weight of mouse. The compounds were tested at 1.25, 2.5, or 5.0 per kilogram of body weight of mouse, and the test preparations for the rates of 1.25 and 5.0 mg./kg. were prepared in a similar manner. Immediately after receiving the test compound, the mice were challenged using log10 dilutions of 10^-^4, 10^-^5 and 10^-^6,of a 16 to 20-hour tryptose broth culture of Pasteurella multocida at 0.1 ml. per mouse subcutaneously. Similar groups of nontreated control mice were also challenged, the challenge being administered subcutaneously. The groups of mice were observed daily for mortality and the total mortality in treated groups compared with that which occurred in the nonmedicated control groups. Each test compound is identified by the number of the example describing its preparation.
In the chart, column 1 lists the test compound; column 2, the dosage of test compound in mg./kg. of mouse body weight; column 3, the dilution of the challenge organism; and column 4, the ratio of the number of mice surviving the test at each dosage and challenge dilution to the number of mice tested at each dosage and challenge dilution, called the survival ratio.

[3] = test system: Aeromonas liquefaciens; assay: In vitro activity against fish bacterial pathogen, standard tube dilution test (MIC); assay type: cell-based; conditions: Aeromonas hydrophila; Aeromonas liquefaciens; tryptose broth, overnight, about 37° C.; read-out: minimum inhibitory concentration (MIC)
Experimental: (§1) The in vitro activity of certain of the novel compounds of this invention against two fish bacterial pathogens was determined using tryptose broth and the standard tube dilution test system. Doubling dilutions ranging from 100.0 to 0.78 mcg./ml. of each of the test compounds were prepared in 5 ml. amounts of tryptose broth. Each tube in the series was then inoculated with one drop from a 24-hour broth culture of either Pseudomonas sp. or a strain of Aeromonas liquefaciens. The tubes were incubated overnight at about 37° C., and the minimum inhibitory concentration (MIC) determined and recorded.
(§2) Column 1 lists the test compounds identified by their operating example number; column 2 lists the MIC for Pseudomonas sp.; and column 3 lists the MIC for Aeromonas liquefaciens.

[4] = test system: Pseudomonas sp.; assay: as above; assay type: cell-based; conditions: tryptose broth, overnight, about 37° C., read-out: minimum inhibitory concentration (MIC)
Experimental: as §1, §2

[5] = test system: Salmonella typhimurium; assay: In vivo activity against Salmonella typhimurium in chicks, subcutaneous
[6] = test system: Trichomonas vaginalis; assay: In vitro activity against Trichomonas vaginalis; assay type: cell-based
[7] = test system: Trichomonas vaginalis; assay: In vivo activity against Trichomonas vaginalis
[8] = test system: Treponema hyodysenteriae; assay: In vitro activity against Treponema hyodysenteriae on blood agar plates (MIC); assay type: cell-based
Experimental: A number of representative compounds, namely, 5b, 8, and 15b, were tested for their in vitro activity against Treponema hyodysenteriae. The treponema were propagated on blood agar plates. Each plate which was prepared contained 20 ml. of trypticase soy agar (Baltimore Biological Laboratory [BBL]) with 5.0 g./l. of yeast extract (Difco) and 5 percent sterile defibrinated horse blood. The plates were sterile plastic 15 × 100 mm. petri plates. Incubation was carried out at 37° C. for 4 days under anaerobic conditions using the BBL Gas Pak system.
The concentrations of test compounds in this initial test were prepared in dilutions ranging from 2000 mcg./ml. to 7.8 mcg./ml. The test procedure was carried out in the following manner. Five ml. of a twenty-fold concentration in tryptose broth (Difco) of each filter-sterilized test compound dilution was mixed in a series of flasks containing 90 ml. of melted trypticase soy agar with yeast extract. Five ml. of horse blood was then added per flask. The contents of these flasks were then used to prepare a series of blood agar plates in doubling decreasing dilutions ranging from 100 mcg./ml. to 0.39 mcg./ml.
The treponema for inoculation of these plates were obtained by adding 3.0 ml. of sterile tryptose broth to the surface of a plate on which the treponema had been propagated. A sterile cotton-tipped swab was used to loosen the treponema from the agar. […] The inoculum was spread so that it covered the surface of each plate, a bent sterile plastic pipette being used for this purpose for each plate. The plates were incubated at about 36° C. for about 4 days and then examined for growth of the treponema. The minimum inhibitory concentration (MIC) of each test compound was the concentration that prevented growth of treponema.

[9] = 5.0 mg./kg. intraperitoneal, challenge dilution 10^-^4 subcutaneous
[10] = 5.0 mg./kg. intraperitoneal, challenge dilution 10^-^5 subcutaneous
[11] = 5.0 mg./kg. intraperitoneal, challenge dilution 10^-^6 subcutaneous
[12] = challenge dilution 10^-^4 subcutaneous
[13] = challenge dilution 10^-^5 subcutaneous
[14] = challenge dilution 10^-^6 subcutaneous

In the case of “5-[2-(Diethylamino)ethyl]-4,5-dihydro-4-imino-1-methyl-3-(1-methyl-5-nitroimidazol-2-yl)-1H-pyrazolo[3,4-d]-pyrimidine disulfate [Example 8i]”, the “Protective Index (log10 protection)” value ([1]; 0.5 g./gal. in drinking water) is reported as > 2.5 and the “Protective Index (log10 protection)” value ([1]; 2.0 g./gal. in drinking water) is reported as > 2.5.
Work on `CCc1nc2c(c(-c3ncc([N+](=O)[O-])n3C)nn2C)c(=O)[nH]1` [Example 2, 6-Ethyl-1,5-dihydro-1-methyl-3-(1-methyl-5-nitroimidazol-2-yl)-4H-pyrazolo[3,4-d]pyrimidin-4-one] yielded a responders at 5 mg/kg [2, 9] of 20%, a responders at 5 mg/kg [2, 10] of 33.3% and a responders at 5 mg/kg [2, 11] of 33.3%. For the same compound, the MIC [3] was 50 µg/mL (≈ 165 µM), the MIC [4] was 50 µg/mL (≈ 165 µM) and the “in vivo activity against Salmonella typhimurium in chicks” value (“in vivo activity … in chicks” for short) [5] was “active in vivo against Salmonella typhimurium in chicks”.
`CN(C)CCCn1cnc2c(c(-c3ncc([N+](=O)[O-])n3C)nn2C)c1=N` [Example 10, 5-[3-(Dimethylamino)propyl]-4,5-dihydro-4-imino-1-methyl-3-(1-methyl-5-nitroimidazol-2-yl)-1H-pyrazolo[3,4-d]pyrimidine] gave a responders at 5 mg/kg [2, 9] of 100%, a responders at 5 mg/kg [2, 10] of 80% and a responders at 5 mg/kg [2, 11] of 100%. For the same compound, the “in vitro activity against Trichomonas vaginalis” value (shortened to “in vitro activity”) [6] was “active both in vitro and in vivo against Trichomonas vaginalis” and the “in vivo activity against Trichomonas vaginalis” value [7] was “active both in vitro and in vivo against Trichomonas vaginalis”.
`CN(C)CCn1cnc2c(c(-c3ncc([N+](=O)[O-])n3C)nn2C)c1=N` [Example 8, 5-[2-(Dimethylamino)ethyl]4,5-dihydro-4-imino-1-methyl-3-(1-methyl-5-nitroimidazol-2-yl)-1H-pyrazolo[3,4-d]pyrimidine] was tested, and the “Survival ratio (mice surviving / mice tested)” value [2, 9] was 10/10, the responders at 1.25 mg/kg [2, 12] was 20% and the responders at 1.25 mg/kg [2, 13] was 40%. For the same compound, the responders at 1.25 mg/kg [2, 14] was 60%, the responders at 2.5 mg/kg [2, 12] was 40% and the responders at 2.5 mg/kg [2, 13] was 60%. For the same compound, the responders at 2.5 mg/kg [2, 14] was 100%, the responders at 5 mg/kg [2, 10] was 100% and the responders at 5 mg/kg [2, 11] was 100%. The MIC [3] was 12.5 µg/mL (≈ 36.2 µM), the MIC [4] was 1.56 µg/mL (≈ 4.52 µM) and the MIC ([8]; Brachyspira hyodysenteriae, 96 h, blood agar plates, about 36° C., about 4 days, read-out: minimum inhibitory concentration (MIC)) was ≤ 1.56 µg/mL. The “inhibition of growth of the treponema” value ([8]; doubling dilutions 100 mcg./ml. to 0.39 mcg./ml.) was “inhibited growth of the treponema at each of the levels tested”, the “in vivo activity … in chicks” value [5] was “active in vivo against Salmonella typhimurium in chicks” and the “in vitro activity” value [6] was “active both in vitro and in vivo against Trichomonas vaginalis”. For the same compound, the “in vivo activity against Trichomonas vaginalis” value [7] was “active both in vitro and in vivo against Trichomonas vaginalis”.
`Cc1nc2c(c(-c3ncc([N+](=O)[O-])n3C)nn2C)c(=O)[nH]1` [Example 13, 1,5-Dihydro-1,6-dimethyl-3-(1-methyl-5-nitroimidazol-2-yl)-4H-pyrazolo[3,4-d]pyrimidin-4-one] was tested, and the responders at 2.5 mg/kg [2, 12] was 20%, the responders at 2.5 mg/kg [2, 13] was 20% and the responders at 2.5 mg/kg [2, 14] was 60%. For the same compound, the responders at 5 mg/kg [2, 9] was 10%, the responders at 5 mg/kg [2, 10] was 50% and the responders at 5 mg/kg [2, 11] was 50%. The “in vivo activity … in chicks” value [5] was “active in vivo against Salmonella typhimurium in chicks”.
In the case of `Cn1nc(-c2ncc([N+](=O)[O-])n2C)c2c1NC(CCl)(OC(=O)CCl)NC2=O` (centres unmarked) [Example 3, 6-(Chloromethyl)-6,7-dihydro-6-hydroxy-1-methyl-3-(1-methyl-5-nitroimidazol-2-yl)-1H-pyrazolo[3,4-d]pyrimidin-4-(5H)-one, chloroacetate ester], the responders at 2.5 mg/kg [2, 12] is reported as 30%, the responders at 2.5 mg/kg [2, 13] is reported as 10% and the responders at 2.5 mg/kg [2, 14] is reported as 20%. It also gave a responders at 5 mg/kg [2, 9] of 5%, a responders at 5 mg/kg [2, 10] of 20% and a responders at 5 mg/kg [2, 11] of 25%. The “in vitro activity” value [6] was “active both in vitro and in vivo against Trichomonas vaginalis” and the “in vivo activity against Trichomonas vaginalis” value [7] was “active both in vitro and in vivo against Trichomonas vaginalis”.
